Data on four compounds can be found in patent US6936637B2, “Prevention of apoptosis in non-cancerous cells” (University of Tennessee Research Foundation, priority 1999, dated 2005).

The test system of assay [1] is CaCo-2 cells. Briefly: Examples 1 to 8 repeated in cancerous cells. As to conditions: CaCo-2 cells substituted for IEC-6. Type of assay: cell-based, human. An excerpt:
Studies described in Examples 1 to 8 are repeated, except that cancerous human intestinal CaCo-2 cells (ATCC no. HTB37) are substituted for the IEC-6 rat intestinal cell lines.

In assay [2] the test system is IEC-6 cells. Briefly: Intracellular polyamines by HPLC. The conditions noted are these: for level of putrescine in the cells / level of spermidine in the cells / level of spermine in the cells: cells grown in presence of DFMO or DEGBG. Type of assay: cell-based, rat. Here is the method: IEC-6 cells were grown for 4 days in the presence or absence of DFMO (Marion Merrel Dow, Cincinnati, Ohio) the highly specific inhibitor of ODC. DFMO treatment depletes putrescine within 3 hours. Depletion of spermidine requires 24 hours and significant depletion (about 50%) of spermine requires 3 days.
Intracellular polyamines were analyzed by high performance liquid chromatography. Cells were plated in 60 mm dishes at 6.25×10^4 cells/cm^2 and grown in DMEM/dFBS with or without DFMO or DEGBG. After washing the monolayer three times with ice-cold DPBS, 0.5 M perchloric acid was added and the samples were then frozen at −80° C. until ready for extraction, dansylation, and HPLC. The standard curve encompassed the range of 0.31-10 μM. Values that fell >25% below the curve were considered not detectable. The level of […] was determined by the Bradford method, as described in Anal. Biochem., 72:248-254 (1976).

Assay [3] relates to CaCo-2 cells. Nature of the assay: Floating cell count in cancerous cells. Type of assay: cell-based, human. Here is the method:
Cancerous human intestinal CaCo-2 cells were grown in similar culture media as described in Example 1, except that one group of the cells was grown in a medium not containing DFMO and another group was grown in a medium containing DFMO. After four days of growth, camptothecin at a dose of 20 μM was added to the culture medium of each of the groups. After 6 hours, the number of floating cells in the media of the two groups of cells was determined. The study was repeated using a different inducer of apoptosis, a combination of 20 ng/ml of tumor necrosis factor-α (TNF-α) and 25 μg/ml of cycloheximide.

Assay [4] deals with IEC-6 cells. Nature of the assay: Floating cell count (detachment-induced cell death, apoptosis). The conditions noted are these: for number of floating cells compared to control: FIG. 4; for floating cells (percentage of total cell count): camptothecin exposure. Type of assay: cell-based, rat. Here is the method: IEC-6 cells, having the ATCC designation CRL-1592, were obtained from the American Type Culture Collection at passage 13. The IEC-6 cells are normal, non-cancerous intestinal epithelial cells derived from fetal rat crypt cells. These cells are non-tumorigenic and retain the undifferentiated character of epithelial stem cells. The IEC-6 cell stock was maintained in T-150 flasks in a humidified, 37° C. incubator in an atmosphere of 90:10 air:CO2. The medium used was Dulbecco's modified Eagle medium (DMEM) (Gibco BRL, Grand Island, N.Y.) with 5% heat inactivated fetal bovine serum (FBS) (Sigma, St. Louis, Mo.) and 10 μg insulin and 50 μg gentamicin sulfate per ml. The stock was passaged weekly at 1:10, fed 3 times per week, and passages 15-20 were used. The cells were plated on day 0 at a density of 6.25×10^4 cells/cm^2 in T-150 flasks in DMEM/dFBS (dialyzed fetal bovine serum with 10,000 molecular weight cut-off) (Sigma, St. Louis, Mo.) with or without the treatment compound or compounds described in the Examples that follow. The cells were fed on day 2. On day 3, medium was removed and replaced with serum-free medium. On day 4, camptothecin (Sigma, St. Louis, Mo.) in a DMSO vehicle was added to a concentration of 20 μM into the serum-free medium containing the cells of Example 1 for 3 to 18 hours, with the vehicle (DMSO) added to controls. Detachment-induced cell death (DICD) is a well recognized form of apoptosis in anchorage-dependent cell types, such as intestinal epithelial cells. Floating cells were poured into a 25 ml tube and the monolayer was washed once with HBSS without calcium and magnesium. This wash was then combined into the tube with the floating cells. Attached cells were taken up with 0.05% trypsin plus 0.53 MM EDTA, followed by one wash of the flask with DMEM/5% FBS. Cell counts were determined separately for floating and attached cells by counting on a Model ZF Coulter counter. Floating cells were expressed as a percentage of the total cell count obtained by combining the number of floating and attached cells.

Assay [5] has as its system caspase 3. Briefly: Caspase 3 activity assay (DEVD-pNA) in cell lysates. The assay is classed as cell-based, rat. As to conditions: for caspase 3 activity over time, attached cells: camptothecin exposure 0 to 18 hours, control cells or DFMO treated cells.
Experimental: In a separate flask, following camptothecin or DMSO addition, the cells were harvested after 16 hours in order to obtain a sufficient number of floating cells for analysis. Floating cells were then poured off to be counted and were combined with one wash with cold DPBS (Sigma, St. Louis, Mo.). The attached cells were then harvested for determination of caspase activity. 10 ml of DPBS was added to the flask and the monolayer was scraped and collected into a 25 ml tube. The flask was washed once with 10 ml of DPBS and combined into the 25 ml tube. The cells were pelleted by centrifugation at 800× g for 5 minutes. The supernatant was discarded and the pellet was resuspended in 1 ml of cold DPBS and transferred into a microfuge tube. The cells were pelleted by centrifugation at 10,000× g at 4° C. for 10 minutes. The supernatant was discarded and the cells were lysed in 100 ml of ice cold cell lysis buffer (50 mM HEPES, pH 7.4, 0.1% CHAPS, 1 mM DTT, 0.1 mM EDTA, 0.1% NP40) (Sigma, St. Louis, Mo.). The assay for caspase activity was carried out in a 96-well plate. Into each well was placed 20 μl of cell lysate, 70 μl of assay buffer (50 mM HEPES, pH 7.4, 0.1% CHAPS, 100 mM NaCl, 10 mM DTT, 1 mM EDTA ) and 10 μl of caspase 3 calorimetric substrate (2 mM DEVD-pNA prepared in assay buffer, a caspase specific peptide that is conjugated to the chromogen p-nitroanilide) (Biomol Research Laboratories, Plymouth Meeting, Pa.). The 96-well plate was incubated at 37° C. for 2 hours, during which time the caspase in the sample was allowed to cleave the chromophore pNA from the substrate molecule. Absorbance readings at 405 nm were made after the 2 hour incubation, with the caspase activity being directly proportional to the color reaction. Protein was determined for each sample using the BCA method (Pierce, Rockford, Ill.) and a standard curve for p-nitroanilide was carried out. Results for caspase activity were expressed as pmol of pNA released/mg protein/minute.
In a further assay the test system is mast cell tumor. Briefly: Dog with mast cell tumor treated with Co60 gamma radiation. The assay is classed as in vivo. The conditions noted are these: DFMO 100 mg/kg/day orally for four days, adult dog. Here is the method: DFMO at a dosage of 100 mg/kg/day is administered orally for four days to an adult dog suffering from a mast cell tumor on one of its rear legs. The tumor is treated in multiple sessions by exposure to Co^60 gamma radiation as indicated for this type of tumor. The field of exposure to the radiation exceeds the boundaries of the tumor.

In assay [6] the test system is caspase 3. Nature of the assay: Western blot of caspase 3 levels. The assay is classed as cell-based, rat. The conditions noted are these: polyamine depleted cells (DFMO). Here is the method: Total cell protein (50 μg) from cell extracts prepared for caspase 3 assay was separated on 15% SDS-PAGE and transferred to nitrocellulose membranes for western blotting. Equal loading of protein was confirmed by staining the nitrocellulose membrane with Ponceau S (Sigma, St. Louis, Mo.). The membrane was then probed with an antibody directed against caspase 3 (CPP32) (Santa Cruz Biotechnology, Santa Cruz, Calif.). The immunocomplexes were visualized by the enhanced chemiluminescence detection system.
A general note: In western blotting, separated proteins are transferred to a membrane and probed.

In assay [7] the test system is IEC-6 cells. Nature of the assay: Nucleosomal DNA fragmentation assay. The assay is classed as cell-based, rat. The conditions noted are these: camptothecin 20 μM. Here is the method:
Cells were collected for determining the presence or absence of DNA fragmentation. After treatment with camptothecin (or vehicle), floating cells were poured off and combined with one DPBS wash of the monolayer. […] The attached cells were collected for DNA fragmentation by scraping in DPBS and combining with one wash of the flask with DPBS. […] The nucleosomal fragmentation assay was carried out by isolating DNA from the cells using the TACS apoptotic DNA laddering kit (Trevigen, Gaithersburg, Md.) and analyzing the labeled DNA by agarose gel electrophoresis following the manufacturer's instructions.

In assay [8] the test system is caspase 3. The conditions noted are these: putrescine up to 5 μM added to cell extracts from DFMO treated cells.
Where [9] appears, read: 0 time, control cells or DFMO treated cells.
Setting [10] is: 18 hours, control cells or DFMO treated cells.
Where [11] appears, read: cells grown 4 days with DFMO, 6 hours after camptothecin.

As to `NCCCC(N)(C(=O)O)C(F)F` (racemic) [DFMO, DL-œ-difluoromethylornithine], in the assay on CaCo-2 cells [1], the inhibition of apoptosis result is recorded as “No inhibition of apoptosis is observed”. Also, in the assay on IEC-6 cells [2] (DFMO treatment of IEC-6 cells), the “time required for depletion of spermidine” value was found to be 24 h. Also, the “time required for significant depletion of spermine” value with IEC-6 cells [2] (DFMO treatment of IEC-6 cells) was 3 days. Also, the “time to depletion of putrescine” value with IEC-6 cells [2] (DFMO treatment of IEC-6 cells) was at most 3 h. In addition, the depletion of spermine result in the assay on IEC-6 cells [2] (DFMO treatment, 3 days) is “about 50%”. In addition, in the assay on IEC-6 cells [2], the “level of putrescine in the cells” value is on record as “decreases”. Besides, the “level of spermidine in the cells” value in the assay on IEC-6 cells [2] is given as “decreases”. Moreover, the “level of spermine in the cells” value in the assay with IEC-6 cells [2] is reported as “decreases”. Besides, the “protection of cancerous cells from apoptosis” value in the assay with CaCo-2 cells [3] (apoptosis induced by camptothecin or TNF-α + cycloheximide) is “did not protect the cancerous cells from apoptosis”. For the same compound, the “number of floating cells” value with CaCo-2 cells [3] (with DFMO 4 days, 20 ng/ml TNF-α and 25 μg/ml cycloheximide) is 6.2 +/− .6; in the assay on CaCo-2 cells [3] (with DFMO 4 days, camptothecin 20 μM, 6 hours) it was 3.7 +/− .24; with CaCo-2 cells [3] (with DFMO 4 days, no TNF-α + cycloheximide) it was 4.8 +/− .5; in the assay on CaCo-2 cells [3] (with DFMO 4 days, no camptothecin) it was 3.1 +/− .06. Moreover, the “number of floating cells compared to control” value in the assay with IEC-6 cells [4] (DFMO alone) is on record as “decreased the number of floating cells”. Moreover, in the assay on IEC-6 cells [4] (DFMO treated cells exposed to camptothecin), the “delay of onset of apoptosis” value is listed as “up to 12 hours”. Moreover, the “floating cells (percentage of total cell count)” value stood at 2.2% with IEC-6 cells [4] (setting [9]); 9.3% with IEC-6 cells [4] (12 hours, DFMO treated cells); 29.1% in the assay on IEC-6 cells [4] (setting [10]). The “decrease in the number of floating cells compared to control cells treated with camptothecin” value in the assay with IEC-6 cells [4] (setting [11]) is around 3 fold. For the same compound, in the assay with IEC-6 cells [4] (cells grown 4 days with DFMO, DMSO (vehicle) or camptothecin, 6 hours), the protection against apoptosis result was “protected against both DMSO (vehicle) and camptothecin-induced apoptosis”. The “percentage of floating cells” value in the assay with IEC-6 cells [4] (day 1 of treatment) worked out at 19.2%; with IEC-6 cells [4] (day 2 of treatment) it was 12.4%; in the assay with IEC-6 cells [4] (day 4 of treatment), 2.2%. The “exposure to camptothecin after which significant increase in caspase 3 activity was observed” value with caspase 3 [5] (DFMO treated cells) stood at 18 h. Further, the “caspase 3 activity over time, attached cells” value with caspase 3 [5] is on record as “did not show remarkable increases in caspase 3 activity for up to 12 hours”. For the same compound, the “lower caspase 3 activity compared to control” value in the assay with caspase 3 [5] (setting [11]) is given as “approximately 50%”. Besides, the “death of surrounding normal tissues” value in the assay on mast cell tumor is given as “visually noticeable decrease in death of the surrounding normal tissues”. Also, in the assay on mast cell tumor, the effect on tumor entry is “the tumor is killed”. In the assay with caspase 3 [6], the “level of caspase 3 (Western blot) compared with controls” value is “not significantly different”.
Consider `CCC(=NNC(=N)N)C(CC)=NNC(=N)N` [DEGBG, diethylglyoxal bis-(guanylhydrazone)], for which, in the assay with IEC-6 cells [2], the “level of putrescine in the cells” value is on record as “significantly increased”, the “level of spermidine in the cells” value is “decreasing” and the “level of spermine in the cells” value is recorded as “decreasing”. For the same compound, the “percentage of floating cells” value in the assay with IEC-6 cells [4] (day 1 of treatment) came out at 26.6%. In addition, the “percentage of floating cells” value with IEC-6 cells [4] (day 2 of treatment) is 26.9%. The “percentage of floating cells” value in the assay with IEC-6 cells [4] (day 4 of treatment) is reported as 23.3%.
As to `CC[C@@]1(O)C(=O)OCc2c1cc1n(c2=O)Cc2cc3ccccc3nc2-1` [camptothecin], the “DNA fragmentation, attached cells” value in the assay with IEC-6 cells [7] (attached cells) is “did not show remarkable DNA fragmentation”. The “DNA fragmentation, detached cells” value in the assay on IEC-6 cells [7] (detached (floating) cells) is reported as “showed characteristic nucleosomal DNA fragments”. Also, the “number of floating cells” value with CaCo-2 cells [3] (no DFMO, camptothecin 20 μM, 6 hours) is on record as 2.7 +/− .06. Also, in the assay with IEC-6 cells [4] (camptothecin 20 μM, within 6 hours), the “increase in the number of floating cells compared to DMSO control group” value was determined as 8 fold. Also, the figures for the “floating cells (percentage of total cell count)” value in the assay with IEC-6 cells [4] (setting [9]) and with IEC-6 cells [4] (setting [10]) were 6.2% and 49.3%, respectively. Besides, the “onset of camptothecin induced apoptosis (number of floating cells)” value in the assay on IEC-6 cells [4] (control cells (no DFMO)) was at most 3 h. Moreover, the “caspase 3 activity, detached cells” value in the assay on caspase 3 [5] (camptothecin 20 μM, detached (floating) cells) was “increased caspase 3 activity”. For the same compound, the “increase in caspase 3 activity, attached cells” value with caspase 3 [5] (camptothecin 20 μM, harvested after 16 hours, attached cells) is on record as 7 fold. The “caspase 3 activity over time, attached cells” value in the assay on caspase 3 [5] is listed as “increased progressively with time”.
As for `NCCCCN` [putrescine], the “number of floating cells compared to control” value with IEC-6 cells [4] (exogenous 10 μM putrescine along with DFMO) was “restored the number of floating cells to control levels”. In addition, the “effect on caspase activity” value in the assay with caspase 3 [8] is “did not reveal any effect”.
